Test system: panel of CRC cell lines
Assay: Colony formation assay (long-term cell proliferation)
Type: cell-based, human
Conditions: low dose
Method: Five hundred cells were seeded per well in 6-well plates and treated with different concentrations of compounds for 24 hours, then, cells were cultured with drug-free complete medium for 2 weeks with fresh medium changed every 7 days. Cells were fixed with 10% formalin and stained with 0.05% crystal violet at the end of 2 weeks period of cell culture (Franken et al., Nat. Protoc., 2006, 1, 2315-9).

CCCCCCCCOC(=O)CCc1c(C)[nH]c(/C=C2\N=C(c3ccc[nH]3)C=C2OC)c1C [PG3-Oc, Octyl (Z)-3-(5-((4′-methoxy-1H,5′H-[2,2′-bipyrrol]-5′-ylidene)methyl)-2,4-dimethyl-1H-pyrrol-3-yl)propanoate]
inhibition in long-term cell proliferation: Over 90%

From patent US12344599B2, “Prodigiosin analogs and methods of use” (Institute For Cancer Research, priority 2016, dated 2025)
